In this assay the target is human PHD2 (Homo sapiens (Human), UniProt Q9GZT9). The experiment in a line: Test 2: human PHD2 inhibitory activity, fluorescence polarization assay of HIF-1α peptide proline hydroxylation. Type of assay: biochemical. The following applies: for inhibition at 1 µM: read-out: Percent inhibition (% at 1 μM); for IC50: human PHD2, fluorescence polarization assay, 20-min incubation at 30° C. The protocol:
(1) Expression and Preparation of Human PHD2
A registered sequence of human PHD2 (NM_022051) was introduced into pcDNA3.1/Hygro(+) vector (Invitrogen), and the sequence was verified. […] The suspension of disrupted cells was centrifuged at 4° C. and 100,000×g for 30 minutes and the supernatant was recovered as a cell lysate.
(2) Measurement of Human PHD2 Inhibitory Activity
The activity of human PHD2 enzyme was measured with a substrate which is a 19-residue partial peptide based on the sequence of HIF-1α; specifically, the hydroxylation of a proline residue in the peptide was measured by FP (Fluorescence Polarization).
A test compound and the substrate solution were preliminarily added onto 384-well plates and reaction was initiated by adding a human PHD2 enzyme solution (40 ng/well). After 20-min incubation at 30° C., an EDTA-containing quench solution was added and the amount of the proline residues hydroxylated via binding to an added HIF—OH antibody solution was quantified by fluorescence polarization.
The fluorescence polarization of each well was measured and the human PHD2 inhibitory activity of each test compound was calculated on the basis of the values for the test compound-free group.

Where [1] appears, read: test compound's concentration 1 μM, Test 2, fluorescence polarization assay.

Structures can show the parent of a compound that is named as a salt. Where two headings read alike, the source gives them in different places.

human PHD2, sequence (Q9GZT9 whole entry): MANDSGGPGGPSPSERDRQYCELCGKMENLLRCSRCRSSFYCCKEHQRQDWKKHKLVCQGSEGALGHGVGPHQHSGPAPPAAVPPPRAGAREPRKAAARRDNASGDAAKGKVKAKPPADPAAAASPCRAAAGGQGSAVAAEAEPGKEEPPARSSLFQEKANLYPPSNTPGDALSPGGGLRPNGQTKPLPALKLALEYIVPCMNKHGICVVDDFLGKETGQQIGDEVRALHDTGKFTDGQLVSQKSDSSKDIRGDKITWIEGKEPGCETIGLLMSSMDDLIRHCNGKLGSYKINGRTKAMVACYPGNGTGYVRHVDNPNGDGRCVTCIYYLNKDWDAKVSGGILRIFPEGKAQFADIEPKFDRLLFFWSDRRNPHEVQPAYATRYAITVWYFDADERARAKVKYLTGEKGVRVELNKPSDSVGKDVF

On to `O=C(O)CNC(=O)C1=C(O)CCN(C[C@H]2CC[C@H](OCc3ccc(F)cc3)CC2)C1=O` [Ex. 1-438], for which the inhibition (as a rule, the drop in the measured response relative to a control, in per cent) at 1 µM under setting [1] was 90%.
On the same count and under the same terms, the figure for `O=C(O)CNC(=O)C1=C(O)CCN(C[C@H]2CC[C@H](Oc3ccccn3)CC2)C1=O` [Ex. 1-439] is 81%.
For the compound `O=C(O)CNC(=O)C1=C(O)CCN(Cc2cnc(Oc3ccc(Cl)cc3)cn2)C1=O` [Ex. 1-440], the IC50 (commonly the concentration at which inhibition is half-maximal) is 39 nM. Also, the inhibition at 1 µM under setting [1] was determined as 98%.
As to `O=C(O)CNC(=O)C1=C(O)CCN(C[C@H]2CC[C@H](Oc3ccc(C4CC4)cc3)CC2)C1=O` [Ex. 1-442], under setting [1], the inhibition at 1 µM was 98%.
For `O=C(O)CNC(=O)C1=C(O)CCN(Cc2cnc(Oc3ccc(C4CC4)cc3)cn2)C1=O` [Ex. 1-443], half-maximal inhibition (IC50) required 21 nM. In addition, the inhibition at 1 µM under setting [1] was 101%.
Turning to `O=C(O)CNC(=O)C1=C(O)CCN(C[C@H]2CC[C@H](OCc3ccccc3)CC2)C1=O` [Ex. 1-444], under setting [1], the inhibition at 1 µM was found to be 88%.
For the compound `O=C(O)CNC(=O)C1=C(O)CCN(C[C@H]2CC[C@H](OCC3CC3)CC2)C1=O` [Ex. 1-445], the inhibition at 1 µM under setting [1] came to 75%.
Same read-out and setting: the figure for `O=C(O)CNC(=O)C1=C(O)CCN(C[C@H]2CC[C@H](Oc3ccc(C4CC4)cn3)CC2)C1=O` [Ex. 1-446] is 94%; for `O=C(O)CNC(=O)C1=C(O)CCN(C[C@H]2CC[C@H](OCCc3ccccc3)CC2)C1=O` [Ex. 1-447] it is 98%.
On the same count and under the same terms, the figure for `O=C(O)CNC(=O)C1=C(O)CCN(C[C@H]2CC[C@H](OCC3CCCC3)CC2)C1=O` [Ex. 1-448] is 92%; for `CCc1ccc(O[C@H]2CC[C@H](CN3CCC(O)=C(C(=O)NCC(=O)O)C3=O)CC2)nc1` [Ex. 1-449] it is 99%; for `Cc1ccc(CO[C@H]2CC[C@H](CN3CCC(O)=C(C(=O)NCC(=O)O)C3=O)CC2)cc1` [Ex. 1-450] it is 97%.
The same measure, in the same setting: the figure for `O=C(O)CNC(=O)C1=C(O)CCN(C[C@H]2CC[C@H](OC3CCC3)CC2)C1=O` [Ex. 1-451] is 82%.
As to `CC(Cc1ccc(Cl)cc1)N1CCC(O)=C(C(=O)NCC(=O)O)C1=O` (centres unmarked) [Ex. 1-452], the inhibition at 1 µM under setting [1] came out at 67%.
The same measure, in the same setting: the figure for `O=C(O)CNC(=O)C1=C(O)CCN(Cc2ccc(C3CCCCC3)c(F)c2)C1=O` [Ex. 1-453] is 94%.
Regarding `O=C(O)CNC(=O)C1=C(O)CCN(C[C@H]2C[C@H](Oc3ccc(Cl)cc3)C2)C1=O` [Ex. 1-454], the inhibition at 1 µM under setting [1] worked out at 95%.
Still for that read-out and setting: the figure for `O=C(O)CNC(=O)C1=C(O)CCN(C[C@H]2C[C@@H](Oc3ccc(Cl)cc3)C2)C1=O` [Ex. 1-456] is 98%; for `O=C(O)CNC(=O)C1=C(O)CCN(C[C@H]2C[C@H](OCc3ccc(Cl)cc3)C2)C1=O` [Ex. 1-457] it is 94%; for `Cc1ccc(O[C@H]2C[C@H](CN3CCC(O)=C(C(=O)NCC(=O)O)C3=O)C2)cc1` [Ex. 1-458] it is 89%.
Turning to `O=C(O)CNC(=O)C1=C(O)CCN(C[C@H]2C[C@H](Oc3ccc(C(F)(F)F)cc3)C2)C1=O` [Ex. 1-459], under setting [1], the inhibition at 1 µM was 96%.
On to `O=C(O)CNC(=O)C1=C(O)CCN(C[C@H]2C[C@H](Oc3cccc(Cl)c3)C2)C1=O` [Ex. 1-460], for which the inhibition at 1 µM under setting [1] is 92%.
For `O=C(O)CNC(=O)C1=C(O)CCN(Cc2ccc(OCn3nnc4ccccc43)cc2)C1=O` [Ex. 1-461], the inhibition at 1 µM under setting [1] stood at 95%.
For the compound `Cc1cc(C)n(COc2ccc(CN3CCC(O)=C(C(=O)NCC(=O)O)C3=O)cc2)n1` [Ex. 1-462], under setting [1], the inhibition at 1 µM was 87%.
On the same count and under the same terms, the figure for `Cn1nc2ccccc2c1COc1ccc(CN2CCC(O)=C(C(=O)NCC(=O)O)C2=O)cc1` [Ex. 1-463] is 99%; for `O=C(O)CNC(=O)C1=C(O)CCN(C[C@H]2CC[C@H](OCc3ccc(Cl)cn3)CC2)C1=O` [Ex. 1-464] it is 87%; for `O=C(O)CNC(=O)C1=C(O)CC(CO)(CCl)N(Cc2ccc(-c3ccccc3)cc2)C1=O` (centres unmarked) [Ex. 1-465, N-{[1-(4-Biphenylylmethyl)-6-(chloromethyl)-4-hydroxy-6-(hydroxymethyl)-2-oxo-1,2,5,6-tetrahydro-3-pyridinyl]carbonyl}glycine] it is 80%.
Same read-out and setting: the figure for `O=C(O)CNC(=O)C1=C(O)CCN(Cc2ccc(O)c(Cl)c2)C1=O` [Ex. 1-466, N-{[1-(3-Chloro-4-hydroxybenzyl)-4-hydroxy-2-oxo-1,2,5,6-tetrahydro-3-pyridinyl]carbonyl}glycine disodium] is 77%.
As to `O=C(O)CNC(=O)C1=C(O)CCN(Cc2ccc(C3=CCC(F)(F)CC3)cc2)C1=O` [Ex. 1-467, N-({1-[4-(4,4-difluoro-1-cyclohexen-1-yl)benzyl]-4-hydroxy-2-oxo-1,2,5,6-tetrahydro-3-pyridinyl}carbonyl)glycine sodium salt], the inhibition at 1 µM stood at 95%.
Same read-out and setting: the figure for `Cc1cc(CN2CCC(O)=C(C(=O)NCC(=O)O)C2=O)ccc1OCC1CC1` [Ex. 1-468, N-({1-[4-(Cyclopropylmethoxy)-3-methylbenzyl]-4-hydroxy-2-oxo-1,2,5,6-tetrahydro-3-pyridinyl}carbonyl)glycine sodium salt] is 85%.
Turning to `COc1cnccc1-c1ccc(CN2CCC(O)=C(C(=O)NCC(=O)O)C2=O)cc1` [Ex. 2-2, N-({4-Hydroxy-1-[4-(3-methoxy-4-pyridinyl)benzyl]-2-oxo-1,2,5,6-tetrahydro-3-pyridinyl}carbonyl)glycine sodium salt], the inhibition at 1 µM under setting [1] was found to be 98%.
The same measure, in the same setting: the figure for `COc1ncccc1-c1ccc(CN2CCC(O)=C(C(=O)NCC(=O)O)C2=O)cc1` [Ex. 2-3, N-({4-Hydroxy-1-[4-(2-methoxy-3-pyridinyl)benzyl]-2-oxo-1,2,5,6-tetrahydro-3-pyridinyl}carbonyl)glycine sodium salt] is 92%.
`Cc1ccc(-c2ccc(CN3CCC(O)=C(C(=O)NCC(=O)O)C3=O)cc2)cn1` [Ex. 2-4, N-({4-Hydroxy-1-[4-(6-methyl-3-pyridinyl)benzyl]-2-oxo-1,2,5,6-tetrahydro-3-pyridinyl}carbonyl)glycine sodium salt]: the inhibition at 1 µM came to 88%.
As to `Cc1ccc(-c2ccc(CN3CCC(O)=C(C(=O)NCC(=O)O)C3=O)cc2)nc1` [Ex. 2-5, N-({4-Hydroxy-1-[4-(5-methyl-2-pyridinyl)benzyl]-2-oxo-1,2,5,6-tetrahydro-3-pyridinyl}carbonyl)glycine sodium salt], the inhibition at 1 µM is 97%.
On to `CS(=O)(=O)c1ccc(-c2ccc(CN3CCC(O)=C(C(=O)NCC(=O)O)C3=O)cc2)cc1` [Ex. 2-31], for which the inhibition at 1 µM under setting [1] came out at 93%.
The same measure, in the same setting: the figure for `CN(C)C(=O)c1ccc(-c2ccc(CN3CCC(O)=C(C(=O)NCC(=O)O)C3=O)cc2)cc1` [Ex. 2-32] is 85%; for `O=C(O)CNC(=O)C1=C(O)C2(CCCCC2)N(Cc2ccc(-c3ccc(Cl)cc3)cc2)C1=O` [Ex. 2-33] it is 91%; for `O=C(O)CNC(=O)C1=C(O)CCN(Cc2ccc(-c3ccc(C(=O)O)cc3)cc2)C1=O` [Ex. 2-34] it is 97%.
On the same count and under the same terms, the figure for `COc1ccc(-c2ccc(CN3CCC(O)=C(C(=O)NCC(=O)O)C3=O)cn2)cc1` [Ex. 2-35] is 96%; for `O=C(O)CNC(=O)C1=C(O)CCN(Cc2ccc(-c3ccc(OC(F)(F)F)cc3)nc2)C1=O` [Ex. 2-36] it is 95%.
The same measure, in the same setting: the figure for `O=C(O)CNC(=O)C1=C(O)CCN(Cc2ccc(-c3ccc(F)cc3)nc2)C1=O` [Ex. 2-37] is 91%; for `COc1ccc(-c2ccc(CN3CCC(O)=C(C(=O)NCC(=O)O)C3=O)nc2)cc1` [Ex. 2-38] it is 92%; for `O=C(O)CNC(=O)C1=C(O)CCN(Cc2ccc(-c3ccc(OC(F)(F)F)cc3)cn2)C1=O` [Ex. 2-39] it is 93%.
Turning to `O=C(O)CNC(=O)C1=C(O)CCN(Cc2ccc(-c3ccc(C(F)(F)F)cc3)cn2)C1=O` [Ex. 2-40], the inhibition at 1 µM under setting [1] amounted to 96%.
For `COc1cc(-c2ccc(CN3CCC(O)=C(C(=O)NCC(=O)O)C3=O)cc2)ccn1` [Ex. 2-41], under setting [1], the inhibition at 1 µM was 93%.
Same read-out and setting: the figure for `COc1ncc(-c2ccc(CN3CCC(O)=C(C(=O)NCC(=O)O)C3=O)cc2)s1` [Ex. 2-42] is 96%; for `O=C(O)CNC(=O)C1=C(O)CCN(Cc2ccc(-c3cnc(O)s3)cc2)C1=O` [Ex. 2-43] it is 95%; for `Cc1ccc(-c2ccc(CN3CCC(O)=C(C(=O)NCC(=O)O)C3=O)nc2)cc1` [Ex. 2-44] it is 96%.
Same read-out and setting: the figure for `Cc1ccc(-c2ccc(CN3CCC(O)=C(C(=O)NCC(=O)O)C3=O)cn2)cc1` [Ex. 2-45] is 95%; for `O=C(O)CNC(=O)C1=C(O)CCN(Cc2ccc(-c3ccc(Cl)cc3)nc2)C1=O` [Ex. 2-46] it is 93%.
For the compound `Cc1ccc(-c2ccc(CN3CCC(O)=C(C(=O)NCC(=O)O)C3=O)cc2)s1` [Ex. 2-47], the inhibition at 1 µM under setting [1] worked out at 100%.
For `O=C(O)CNC(=O)C1=C(O)CCN(Cc2ccc(-c3ccc(C4CC4)cc3)nc2)C1=O` [Ex. 2-48], under setting [1], the inhibition at 1 µM was found to be 103%.
On the same count and under the same terms, the figure for `O=C(O)CNC(=O)C1=C(O)CCN(Cc2ccc(-c3ccc(C4CC4)cc3)cc2)C1=O` [Ex. 2-49] is 93%; for `O=C(O)CNC(=O)C1=C(O)CCN(Cc2ccc(-c3ccc(C4CC4)cc3)cn2)C1=O` [Ex. 2-50] it is 99%.
Still for that read-out and setting: the figure for `COc1cccc(-c2ccc(CN3CCC(O)=C(C(=O)NCC(=O)O)C3=O)cn2)c1` [Ex. 2-51] is 97%.

Source of the values: US9422240B2, “Partially saturated nitrogen-containing heterocyclic compound” (TAISHO PHARMACEUTICAL CO., LTD, priority 2012, dated 2016).
